Our source for the Tumor growth values is patent publication US20250188078A1, “SMALL MOLECULE INHIBITORS OF THE CRL4 UBIQUITIN LIGASE” (Cornell University, priority 2022, published 2025).

The test system of the test is CUL4A^high xenograft and PDX tumors. Nature of the test: CUL4A^high xenograft and PDX tumor growth. Format: in vivo, mouse. To be noted: 50 mg/kg intraperitoneal; breast cancer xenograft and colorectal cancer PDX models, FIGS. 8A-8C. The method, then:
Measurements were performed according to the following procedure. Mouse body weights were monitored using a scale. Tumors were assessed and volumes measured with fine calipers twice a week. The tumor volumes were calculated with the formula: Volume=(Length×Width^2)/2. Compound PA99 was administered via intraperitoneal doses in an amount of 50 mg/kg every X days, where X is the number of days shown in FIGS. 8A-8C.

Structures are written as SMILES.

With `CN(c1ccc(-c2nc(C(=O)O)cc3c2[nH]c2cccc(F)c23)cc1)S(=O)(=O)c1ccccc1` [PA99, 5-fluoro-1-(4-(N-methylphenylsulfonamido)phenyl)-9H-pyrido[3,4-b]indole-3-carboxylic acid], the Tumor growth entry is listed as “suppression”.
